Experimental data taken from patent US3970648A, “2-[2-(5-Nitro-2-furyl)vinyl]-4-(anilino)quinazolines” (Diamond Shamrock Corporation, priority 1974, dated 1976).

What was measured:
Assay type in all cases: cell-based
Vibrio coli = assay: Bactericide test, Vibrio coli (agar streak plate); conditions: Campylobacter coli
Outline: (§1)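 Compounds were formulated with Triton X-155/acetone emulsifier (basic formulation 320 ppm, serially diluted) and mixed 2:8 into molten nutrient-tryptic soy agar. Organisms were streaked onto the plates and incubated 48 hr at 28°C. Growth inhibition was scored visually against untreated agar as 0, 50 or 100% control.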

Escherichia coli = assay: Bactericide test, Escherichia coli (agar streak plate)
From the text: Test formulations were examined for bactericidal and/or bacteriostatic activity against the test organisms shown in Tables A and B. These organisms were chosen as being representative of commercially important pathogens affecting animal agriculture. The antibiotic chlortetracycline was chosen as a positive control, since it has a broad spectrum of activity against a large number of organisms, and its activity can be used for comparative purposes.
Basic test formulations of the product of Examples I, II, III, and of chlortetracycline were prepared by dissolving 16 mg (0.016 g) in 2.0 ml of stock emulsifier solution (0.25% Triton X-155 in acetone by volume) and making each solution up to 50 ml with deionized water. The concentration of the test compound in the basic formulation was 320 ppm. Lower concentrations of the test compound were obtained by diluting the basic formulation with a 4% solution of the stock emulsifier in deionized water so that each dilution in the series differed only in test compound content.
Nutrient-tryptic soy agar (NTA) consisting of 2.0% Difco Bactoagar 0.8% nutrient broth (Difco), and 0.5% tryptic soy broth (Difco) was prepared and sterilized by autoclaving. A 2 ml aliquot of each test formulation was added to 8 ml of molten NTA. This mixture was then plated in a sterile polystyrene petri dish (100 × 15 mm). After the agar was set, suspensions of each of the test organisms were simultaneously streaked onto the surface of the agar. The inoculated plates were incubated for 48 hr at 28°C. The inhibition of growth of each organism was rated by visual comparison with the organism developing on non-treated agar. Growth inhibition reported as per cent control was rated in three categories as follows: 0% control, growth equivalent to that on non-treated agar; 50% control, sparse development and separated colonies; 100% control, no visible growth or development of colonies.
Test formulations of the product of Example IV were examined for bactericidal and/or bacteriostatic activity against the test organisms shown in Table B using the Bactericide Test described in Example V. The inhibition of organism growth with each diluted test formulation was rated visually by comparison with the organism developing on a non-treated control agar plate. Growth inhibition reported as per cent control was rated in three categories as follows: 0% control, growth equivalent to that on non-treated agar; 50% control is sparse development and separated colonies; and 100% control, development of individual colonies was not apparent.

Salmonella cholerasuis = assay: Bactericide test, Salmonella cholerasuis (agar streak plate); conditions: Salmonella
Outline: (§2)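 Compounds in Triton X-155/acetone emulsifier (basic formulation 320 ppm, diluted serially) were mixed 2:8 into molten nutrient-tryptic soy agar, then organisms streaked on the set plates. After 48 hr at 28°C, growth was scored visually against untreated agar as 0%, 50% (sparse, separated colonies) or 100% control (no visible colonies).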

[1] = tested on: Erysipelothrix rhusiopathiae; assay: Bactericide test, Erysipelothrix rhusiopathiae (agar streak plate); conditions: Erysipelothrix rhusiopathiae
Outline: as §1

Streptococcus group E = assay: Bactericide test, Streptococcus group E (agar streak plate)
Outline: as §1

[2] = tested on: Bordetella bronchiseptica; assay: Bactericide test, Bordetella bronchiseptica (agar streak plate); conditions: Bordetella bronchiseptica
Outline: as §1

Staphylococcus aureus = assay: Bactericide test, Staphylococcus aureus (agar streak plate); conditions: Staphylococcus aureus
Outline: as §2

Streptococcus faecalis = assay: Bactericide test, Streptococcus faecalis (agar streak plate); conditions: Enterococcus faecalis
Outline: as §2

Salmonella gallinarum = assay: Bactericide test, Salmonella gallinarum (agar streak plate); conditions: Salmonella enterica, GALLINARUM
Outline: as §2

Streptococcus agalactiae = assay: Bactericide test, Streptococcus agalactiae (agar streak plate); conditions: Streptococcus agalactiae
Outline: as §1

Salmonella typhimurium = assay: Bactericide test, Salmonella typhimurium (agar streak plate); conditions: Salmonella enterica, TYPHIMURIUM
Outline: as §1

In the case of `CN(C)[C@@H]1C(O)=C(C(N)=O)C(=O)[C@@]2(O)C(O)=C3C(=O)c4c(O)ccc(Cl)c4[C@@](C)(O)[C@H]3C[C@@H]12` [Chlortetracycline, reference compound], the inhibition at 1 ppm (Vibrio coli; 1 ppm) is reported as 0%, the inhibition at 4 ppm (Vibrio coli; 4 ppm) is reported as 100% and the inhibition at 16 ppm (Vibrio coli; 16 ppm) is reported as 100%. It also gave an inhibition at 64 ppm (Vibrio coli; 64 ppm) of 100%, an inhibition at 1 ppm (Escherichia coli) of 0% and an inhibition at 4 ppm (Escherichia coli) of 0%. The inhibition at 16 ppm (Escherichia coli) was 100%, the inhibition at 64 ppm (Escherichia coli) was 100% and the inhibition at 1 ppm (Salmonella cholerasuis) was 0%. For the same compound, the inhibition at 4 ppm (Salmonella cholerasuis) was 0%, the inhibition at 16 ppm (Salmonella cholerasuis) was 100% and the inhibition at 64 ppm (Salmonella cholerasuis) was 100%. For the same compound, the inhibition at 1 ppm ([1]; 1 ppm) was 0%, the inhibition at 4 ppm ([1]; 4 ppm) was 10% and the inhibition at 16 ppm ([1]; 16 ppm) was 100%. The inhibition at 64 ppm ([1]; 64 ppm) was 100%, the inhibition at 1 ppm (Streptococcus group E) was 0% and the inhibition at 4 ppm (Streptococcus group E) was 0%. The inhibition at 16 ppm (Streptococcus group E) was 100%, the inhibition at 64 ppm (Streptococcus group E) was 100% and the inhibition at 1 ppm [2] was 0%. The inhibition at 4 ppm [2] was 0%, the inhibition at 16 ppm [2] was 0% and the inhibition at 64 ppm [2] was 100%. The inhibition at 1 ppm (Staphylococcus aureus) was 0%, the inhibition at 4 ppm (Staphylococcus aureus) was 0% and the inhibition at 16 ppm (Staphylococcus aureus) was 100%. The inhibition at 64 ppm (Staphylococcus aureus) was 100%, the inhibition at 1 ppm (Streptococcus faecalis) was 100% and the inhibition at 4 ppm (Streptococcus faecalis) was 100%. The inhibition at 16 ppm (Streptococcus faecalis) was 100%, the inhibition at 64 ppm (Streptococcus faecalis) was 100% and the inhibition at 1 ppm (Salmonella gallinarum; 1 ppm) was 0%. It also gave an inhibition at 4 ppm (Salmonella gallinarum; 4 ppm) of 0%, an inhibition at 16 ppm (Salmonella gallinarum; 16 ppm) of 100% and an inhibition at 64 ppm (Salmonella gallinarum; 64 ppm) of 100%. The inhibition at 1 ppm (Streptococcus agalactiae) was 0%, the inhibition at 4 ppm (Streptococcus agalactiae) was 100% and the inhibition at 16 ppm (Streptococcus agalactiae) was 100%. For the same compound, the inhibition at 64 ppm (Streptococcus agalactiae) was 100%, the inhibition at 1 ppm (Salmonella typhimurium) was 0% and the inhibition at 4 ppm (Salmonella typhimurium) was 0%. The inhibition at 16 ppm (Salmonella typhimurium) was 0% and the inhibition at 64 ppm (Salmonella typhimurium) was 0%.
